Earlier results, collected in article PMC9465641 (Frontiers in Pharmacology, 2022).

Design: method as in Wang et al., 2021; Chen et al., 2022
Conditions: range reported previously; ref Wang et al., 2021; Chen et al., 2022; cited from earlier work

polymyxin B
CL: 1.59 to 2.86 L/h
